The source of these data is US20190359645A1, “2'3'-CYCLIC DINUCLEOTIDES COMPRISING CARBOCYCLIC NUCLEOTIDE” (Institute of Organic Chemistry and Biochemistry ASCR, V.V.I., priority 2018, published 2019).

This assay has as its target WT STING (Homo sapiens, UniProt Q86WV6, H232R). Description: Digitonin assay using 293T wtSTING-FL reporter cells. The format is cell-based. Details: host or cells: 293T (ATCC CRL-3216), stably transfected; also carries the 4xISRE firefly luciferase reporter. The note with it: 293T wtSTING-FL cells, digitonin buffer 30 min, then 5 h, ISRE firefly luciferase reporter; read-out: Digitonin assay EC50 WT STING. An excerpt:
Two complementary oligonucleotides of the sequence […] […] […] […] (SEQ ID NO: 1) and […] […] (SEQ ID NO:2) containing four interferon-sensitive response elements (ISRE) were synthesized by Sigma Aldrich (Czech Republic, Prague). The oligonucleotides were mixed in equal molar amounts, hybridized, and cleaved by restriction endonucleases HindIII (cat. #. R^0104S, NEB, Ipswich, USA) and BglII (cat. # R^0144S, NEB, Ipswich, USA). Ultimately, they were ligated into plasmid pGL4.27 (cat. # E6651, Promega, Madison, USA) linearized with the same enzymes. As a result, the sequence with four ISRE sites was placed upstream of the minimum promoter of firefly luciferase reporter gene.
293T cells (cat. # CRL-3216, ATCC, Manassas, USA) were seeded a day before transfection at density 125,000 cells per cm^2 onto poly-D-lysine (cat. # P6407, Sigma Aldrich, Czech Republic) coated six well plates in antibiotic free DMEM with high glucose (cat. # D5796, Sigma Aldrich, Czech Republic) supplemented with 10% heat inactivated FBS (cat. # S1520, Biowest, Riverside, USA). On the day of transfection, 2.5 μg of the plasmid pUNO1-hSTING-WT (cat. # punol-hstingwt, InvivoGen, San Diego, USA,) encoding human wild type STING (WT STING) was diluted in 125 μL OptiMEM medium (cat. #31985062, ThermoFisher, Waltham, USA) and mixed with 125 μL of the same medium containing 12.5 μL of Lipofectamine 2000 (cat. #11668019, ThermoFisher, Waltham, USA). After 5 minutes incubation at room temperature (RT), 250 μL of the mixture was added dropwise to the cells in one well. Cells were incubated 36 hours at 37° C. with 5% CO2, and then detached with 0.05% Trypsin and 0.22 g/L EDTA (both cat. # L0941, Biowest, Riverside, USA).
Transfected cells were seeded onto poly-D-lysine coated six well plates at density 50,000 cells per 1 cm^2 in DMEM medium with high glucose containing 10% heat inactivated FBS, […] blasticidin (cat. # ant-bl-05, InvivoGen, San Diego, USA), 0.06 mg/ml Penicillin G and 0.1 mg/ml Streptomycin Sulfate (both cat. #. L0018, Biowest, Riverside, USA). The medium was replenished every 3-4 days until visible colonies of cells resistant to blasticidin were formed.
Blasticidin resistant cells stably expressing WT STING were further transfected with […] plasmid following the same procedure as described above. The transfected cells were selected for the resistance to 300 μg/mL hygromycin (cat. #. 10687010, ThermoFisher, Waltham, USA) in DMEM with high glucose containing 10% heat inactivated FBS, […] blasticidin, 0.06 mg/ml Penicillin G and 0.1 mg/ml Streptomycin Sulfate. Homogeneous culture of stably double transfected cells was prepared by limiting dilution of cells in 96 well plates and wells with cells were selected that originated from a single cell. These cells were expanded, and expression of WT STING was confirmed by western blot using monoclonal mouse anti STING antibodies (cat. #. MAB7169, 1:1000 dilution; […] cat. #. HAF007, 1:2000 dilution, both from R&D Systems, Minneapolis, USA), and by induction of firefly luciferase expression in the presence of 50 μM STING agonist 2′3′ cGAMP (cat. # tlrl-nacga23, InvivoGen, San Diego, USA). Genomic DNA from the transfected cells was amplified with primers pUNO1_Seq_F ([…]) (SEQ ID NO:3) and pUNO1_Seq_R ([…]) (SEQ ID NO:4) that were complementary to pUNO1 plasmid and the presence of WT STING gene in the transfected cells was confirmed by DNA sequencing.
293T wtSTING-FL cells were seeded at density of 250,000 cells per cm^2 onto 96 well poly-D-lysine coated plates in 100 μl DMEM with high glucose supplemented with 10% heat inactivated FBS. […]

In general, EC50 refers to the midpoint of the concentration-response curve.

Sequence of WT STING (Q86WV6 whole entry H232R): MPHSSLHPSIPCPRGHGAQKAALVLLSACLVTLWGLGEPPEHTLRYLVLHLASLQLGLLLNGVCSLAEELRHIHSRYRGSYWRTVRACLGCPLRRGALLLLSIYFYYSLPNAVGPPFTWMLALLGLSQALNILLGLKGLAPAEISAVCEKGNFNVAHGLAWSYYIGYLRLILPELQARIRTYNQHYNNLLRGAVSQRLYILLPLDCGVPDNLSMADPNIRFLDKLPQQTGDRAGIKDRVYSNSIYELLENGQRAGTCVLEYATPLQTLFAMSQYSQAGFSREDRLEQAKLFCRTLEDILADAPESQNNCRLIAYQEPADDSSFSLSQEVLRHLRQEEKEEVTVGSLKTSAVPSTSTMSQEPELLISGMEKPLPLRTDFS

Consider `Cc1cn([C@@H]2O[C@@H]3COP(=O)(O)OC4C(O)[C@@H](COP(=O)(O)OC3C2O)C[C@H]4n2cnc3c(=O)[nH]c(N)nc32)c2ncnc(N)c12` (stereo partly drawn) [Compound 113, (6R,8R,15R,17R)-8-{4-amino-5-methyl-7H-pyrrolo[2,3-d]pyrimidin-7-yl}-17-(2-amino-6-oxo-6,9-dihydro-1H-purin-9-yl)-3,9,12,18-tetrahydroxy-2,4,7,11,13-pentaoxa-3λ^5,12λ^5-diphosphatricyclo[13.2.1.0^6,10]octadecane-3,12-dione], for which the half-maximal effective concentration (EC50) was found to be 0.12 µM.

With `C#Cc1cn([C@@H]2O[C@@H]3COP(=O)(O)OC4C(O)[C@@H](COP(=O)(O)OC3C2O)C[C@H]4n2cnc3c(=O)[nH]c(N)nc32)c2ncnc(N)c12` (stereo partly drawn) [Compound 114, (6R,8R,15R,17R)-8-{4-amino-5-ethynyl-7H-pyrrolo 2,3-dlpyrimidin-7-yl}-17-(2-amino-6-oxo-6,9-dihydro-1H-purin-9-yl)-3,9,12,18-tetrahydroxy-2,4,7,11,13-pentaoxa-3λ^5,12λ^5-diphosphatricyclo[13.2.1.0^6,10]octadecane-3,12-dione], the EC50 was determined as 0.4 µM.

With `Nc1nc2c(ncn2[C@@H]2C[C@@H]3COP(=O)(O)OC4C(O)[C@H](n5cnc6c(Cl)ncnc65)O[C@@H]4COP(=O)(O)OC2C3O)c(=O)[nH]1` (stereo partly drawn) [Compound 115, (6R,8R,15R,17R)-17-(2-amino-6-oxo-6,9-dihydro-1H-purin-9-yl)-8-(6-chloro-9H-purin-9-yl)-3,9,12,18-tetrahydroxy-2,4,7,11,13-pentaoxa-3λ^5,12λ^5-diphosphatricyclo[13.2.1.0^6,10]octadecane-3,12-dione], the EC50 is 0.07 µM.

With `Nc1nc2c(ncn2[C@@H]2C[C@@H]3COP(=O)(O)OC4C(O)[C@H](n5nnc6c(N)ncnc65)O[C@@H]4COP(=O)(O)OC2C3O)c(=O)[nH]1` (stereo partly drawn) [Compound 116, (6R,8R,15R,17R)-8-{7-amino-3H-[1,2,3]triazolo[4,5-d]pyrimidin-3-yl}-17-(2-amino-6-oxo-6,9-dihydro-1H-purin-9-yl)-3,9,12,18-tetrahydroxy-2,4,7,11,13-pentaoxa-3λ^5,12λ^5-diphosphatricyclo[13.2.1.0^6,10]octadecane-3,12-dione], the EC50 was determined as 1.7 µM.

On to `Nc1nc(N)c2ncn([C@@H]3O[C@@H]4COP(=O)(O)OC5C(O)[C@@H](COP(=O)(O)OC4C3F)C[C@H]5n3cnc4c(=O)[nH]c(N)nc43)c2n1` (stereo partly drawn) [Compound 117, (6R,8R,15R,17R)-17-(2-amino-6-oxo-6,9-dihydro-1H-purin-9-yl)-8-(2,6-diamino-9H-purin-9-yl)-9-fluoro-3,12,18-trihydroxy-2,4,7,11,13-pentaoxa-3λ^5,12λ^5-diphosphatricyclo[13.2.1.0^6,10]octadecane-3,12-dione], for which the EC50 amounted to 0.05 µM.

Regarding `Nc1nc2c(ncn2[C@@H]2C[C@@H]3COP(=O)(S)OC4C(O)[C@H](n5cnc6c(N)ncnc65)O[C@@H]4COP(=O)(O)OC2C3O)c(=O)[nH]1` (stereo partly drawn) [Compound 118, (6R,8R,15R,17R)-17-(2-amino-6-oxo-6,9-dihydro-1H-purin-9-yl)-8-(6-amino-9H-purin-9-yl)-3,9,18-trihydroxy-12-sulfanyl-2,4,7,11,13-pentaoxa-3λ^5,12λ^5-diphosphatricyclo[13.2.1.0^6,10]octadecane-3,12-dione], the EC50 came to 0.13 µM.

For `Nc1ncc2ncn([C@@H]3O[C@@H]4COP(=O)(O)OC5C(O)[C@@H](COP(=O)(O)OC4C3O)C[C@H]5n3cnc4c(=O)[nH]cnc43)c2n1` (stereo partly drawn) [Compound 119, (6R,8R,15R,17R)-8-(2-amino-9H-purin-9-yl)-3,9,12,18-tetrahydroxy-17-(6-oxo-6,9-dihydro-1H-purin-9-yl)-2,4,7,11,13-pentaoxa-3λ^5,12λ^5-diphosphatricyclo[13.2.1.0^6,10]octadecane-3,12-dione], the EC50 amounted to 0.4 µM.
